Results published in patent US12121521B2, “Uses of salt-inducible kinase (SIK) inhibitors for treating osteoporosis” (The General Hospital Corporation, priority 2016, dated 2024).

Experiments:
Test in all cases: ScanEDGE kinase panel (DiscoverX)
Type in all cases: binding
RSK2 = biological target: T1, RSK2 (Homo sapiens, UniProt P51812); details: read-out: % of control activity at 71 nM
T1 construct: T7 phage fusion (most kinases) or DNA tag after HEK-293 expression; purchased DiscoverX (Fremont, CA), ScanEDGE; host or cells: T7 phage in E. coli BL21-derived host, or HEK-293
Protocol: (§1) ScanEDGE kinase assays paneling specificity across a panel of 96 representative kinases were performed by DiscoverX (Fremont, CA). For most assays, kinase-tagged T7 phage strains were grown in parallel in 24-well blocks in an E. coli host derived from the BL21 strain. Bacteria were grown to log phase and infected with T7 phage from frozen stock (MOI=0.4) and incubated with shaking at 32° C. until lysis (90-150 minutes). The lysates were centrifuged (6000×g) and filtered (0.2 μm) to remove cell debris. The remaining kinases were produced in HEK-293 cells and subsequently tagged with DNA for qPCR detection. […] The liganded beads were blocked with excess biotin and washing with blocking buffer (SeaBlock (Pierce), 1% BSA, 0.05% Tween 20, 1 mM DTT) to remove unbound ligand and to reduce non-specific phage binding. […] Test compounds were prepared as 40× stocks in 100% DMSO and directly diluted into the assay. All reactions were performed in polypropylene 384 well plates in a final volume of 40 μl. […] The kinase concentration in the eluates was measured by qPCR.

MEK2 = biological target: T2, MEK2 (Homo sapiens, UniProt P36507); details: read-out: % of control activity at 71 nM
T2 construct: T7 phage fusion (most kinases) or DNA tag for qPCR (kinases made in HEK-293); purchased DiscoverX; host or cells: E. coli BL21-derived host (T7 phage) or HEK-293
Protocol: as §1

MET = biological target: T3, MET (Homo sapiens, UniProt P08581); details: read-out: % of control activity at 71 nM
T3 construct: T7 phage fusion (most kinases) or DNA tag for qPCR (kinases made in HEK-293); purchased DiscoverX; host or cells: E. coli BL21-derived host (T7 phage) or HEK-293
Protocol: as §1

EGFR = biological target: T4, EGFR (Homo sapiens, UniProt P00533); details: read-out: % of control activity at 71 nM
T4 construct: T7 phage fusion (most kinases) or DNA tag for qPCR (HEK-293-made kinases); purchased DiscoverX (Fremont, CA); host or cells: E. coli BL21-derived host (T7 phage) or HEK-293
Protocol: as §1

IGF1R = biological target: T5, IGF1R (Homo sapiens, UniProt P08069); details: read-out: % of control activity at 71 nM
T5 construct: T7 phage fusion (most kinases) or DNA tag for qPCR (HEK-293-made kinases); purchased DiscoverX; host or cells: E. coli BL21-derived host (T7 phage) or HEK-293
Protocol: as §1

PIK3CG = biological target: T6, PIK3CG (Homo sapiens, UniProt P48736); details: read-out: % of control activity at 71 nM
T6 construct: T7 phage fusion (most kinases) or DNA tag for qPCR (kinases made in HEK-293); purchased DiscoverX; host or cells: E. coli BL21-derived host (T7 phage) or HEK-293
Protocol: as §1

PRKCE = biological target: T7, PRKCE (Homo sapiens, UniProt Q02156); details: read-out: % of control activity at 71 nM
T7 construct: T7 phage fusion (most kinases) or DNA tag for qPCR (kinases made in HEK-293); purchased DiscoverX; host or cells: E. coli BL21-derived host (T7 phage) or HEK-293
Protocol: as §1

PLK3 = biological target: T8, PLK3 (Homo sapiens, UniProt Q9H4B4); details: read-out: % of control activity at 71 nM
T8 construct: T7 phage fusion (most kinases) or DNA tag for qPCR (kinases made in HEK-293); purchased DiscoverX; host or cells: E. coli BL21-derived host (T7 phage) or HEK-293
Protocol: as §1

TGFBR1 = biological target: T9, TGFBR1 (Homo sapiens, UniProt P36897); details: read-out: % of control activity at 71 nM
T9 construct: T7 phage fusion (most kinases) or DNA tag after HEK-293 expression; purchased DiscoverX (Fremont, CA), ScanEDGE; host or cells: T7 phage in E. coli BL21-derived host, or HEK-293
Protocol: as §1

SIK (SIK1) = biological target: T10, SIK (SIK1) (Homo sapiens, UniProt P57059); details: SIK refers to SIK1, read-out: % of control activity at 71 nM
T10 construct: T7 phage fusion (most kinases) or DNA tag after HEK-293 expression; purchased DiscoverX (Fremont, CA), ScanEDGE; host or cells: T7 phage in E. coli BL21-derived host, or HEK-293
Protocol: as §1

RET = biological target: T11, RET (Homo sapiens, UniProt P07949); details: read-out: % of control activity at 71 nM
T11 construct: T7 phage fusion (most kinases) or DNA tag after HEK-293 expression; purchased DiscoverX (Fremont, CA), ScanEDGE; host or cells: T7 phage in E. coli BL21-derived host, or HEK-293
Protocol: as §1

EPHA2 = biological target: T12, EPHA2 (Homo sapiens, UniProt P29317); details: read-out: % of control activity at 71 nM
T12 construct: T7 phage fusion (most kinases) or DNA tag for qPCR (HEK-293-made kinases); purchased DiscoverX; host or cells: E. coli BL21-derived host (T7 phage) or HEK-293
Protocol: as §1

QSK (SIK3) = biological target: T13, QSK (SIK3) (Homo sapiens, UniProt Q9Y2K2); details: QSK refers to SIK3, read-out: % of control activity at 71 nM
T13 construct: T7 phage fusion (most kinases) or DNA tag after HEK-293 expression; purchased DiscoverX (Fremont, CA), ScanEDGE; host or cells: T7 phage in E. coli BL21-derived host, or HEK-293
Protocol: as §1

CDK9 = biological target: T14, CDK9 (Homo sapiens, UniProt P50750); details: read-out: % of control activity at 71 nM
T14 construct: T7 phage fusion (most kinases) or DNA tag for qPCR (HEK-293-made kinases); purchased DiscoverX (Fremont, CA); host or cells: E. coli BL21-derived host (T7 phage) or HEK-293
Protocol: as §1

ADCK3 = biological target: T15, ADCK3 (Homo sapiens, UniProt Q8NI60); details: read-out: % of control activity at 71 nM
T15 construct: T7 phage fusion (most kinases) or DNA tag for qPCR (HEK-293-made kinases); purchased DiscoverX (Fremont, CA); host or cells: E. coli BL21-derived host (T7 phage) or HEK-293
Protocol: as §1

CDK11 = biological target: T16, CDK11 (Homo sapiens, UniProt Q9BWU1); details: read-out: % of control activity at 71 nM
T16 construct: T7 phage fusion (most kinases) or DNA tag for qPCR (HEK-293-made kinases); purchased DiscoverX (Fremont, CA); host or cells: E. coli BL21-derived host (T7 phage) or HEK-293
Protocol: as §1

PAK4 = biological target: T17, PAK4 (Homo sapiens, UniProt O96013); details: read-out: % of control activity at 71 nM
T17 construct: T7 phage fusion (most kinases) or DNA tag for qPCR (kinases made in HEK-293); purchased DiscoverX; host or cells: E. coli BL21-derived host (T7 phage) or HEK-293
Protocol: as §1

ABL1 = biological target: T18, ABL1 (Homo sapiens, UniProt P00519); details: read-out: % of control activity at 71 nM
T18 construct: T7 phage fusion (most kinases) or DNA tag for qPCR (HEK-293-made kinases); purchased DiscoverX (Fremont, CA); host or cells: E. coli BL21-derived host (T7 phage) or HEK-293
Protocol: as §1

ZAP70 = biological target: T19, ZAP70 (Homo sapiens, UniProt P43403); details: read-out: % of control activity at 71 nM
T19 construct: T7 phage fusion (most kinases) or DNA tag after HEK-293 expression; purchased DiscoverX (Fremont, CA), ScanEDGE; host or cells: T7 phage in E. coli BL21-derived host, or HEK-293
Protocol: as §1

PLK1 = biological target: T20, PLK1 (Homo sapiens, UniProt P53350); details: read-out: % of control activity at 71 nM
T20 construct: T7 phage fusion (most kinases) or DNA tag for qPCR (kinases made in HEK-293); purchased DiscoverX; host or cells: E. coli BL21-derived host (T7 phage) or HEK-293
Protocol: as §1

ULK2 = biological target: T21, ULK2 (Homo sapiens, UniProt Q8IYT8); details: read-out: % of control activity at 71 nM
T21 construct: T7 phage fusion (most kinases) or DNA tag after HEK-293 expression; purchased DiscoverX (Fremont, CA), ScanEDGE; host or cells: T7 phage in E. coli BL21-derived host, or HEK-293
Protocol: as §1

PDPK1 = biological target: T22, PDPK1 (Homo sapiens, UniProt O15530); details: read-out: % of control activity at 71 nM
T22 construct: T7 phage fusion (most kinases) or DNA tag for qPCR (kinases made in HEK-293); purchased DiscoverX; host or cells: E. coli BL21-derived host (T7 phage) or HEK-293
Protocol: as §1

SRPK3 = biological target: T23, SRPK3 (Homo sapiens, UniProt Q9UPE1); details: read-out: % of control activity at 71 nM
T23 construct: T7 phage fusion (most kinases) or DNA tag after HEK-293 expression; purchased DiscoverX (Fremont, CA), ScanEDGE; host or cells: T7 phage in E. coli BL21-derived host, or HEK-293
Protocol: as §1

MLK1 = biological target: T24, MLK1 (Homo sapiens, UniProt P80192); details: read-out: % of control activity at 71 nM
T24 construct: T7 phage fusion (most kinases) or DNA tag for qPCR (kinases made in HEK-293); purchased DiscoverX; host or cells: E. coli BL21-derived host (T7 phage) or HEK-293
Protocol: as §1

SRC = biological target: T25, SRC (Homo sapiens, UniProt P12931); details: read-out: % of control activity at 71 nM
T25 construct: T7 phage fusion (most kinases) or DNA tag after HEK-293 expression; purchased DiscoverX (Fremont, CA), ScanEDGE; host or cells: T7 phage in E. coli BL21-derived host, or HEK-293
Protocol: as §1

FAK = biological target: T26, FAK (Homo sapiens, UniProt Q05397); details: read-out: % of control activity at 71 nM
T26 construct: T7 phage fusion (most kinases) or DNA tag for qPCR (HEK-293-made kinases); purchased DiscoverX; host or cells: E. coli BL21-derived host (T7 phage) or HEK-293
Protocol: as §1

PIK3CA = biological target: T27, PIK3CA (Homo sapiens, UniProt P42336); details: read-out: % of control activity at 71 nM
T27 construct: T7 phage fusion (most kinases) or DNA tag for qPCR (kinases made in HEK-293); purchased DiscoverX; host or cells: E. coli BL21-derived host (T7 phage) or HEK-293
Protocol: as §1

MAPKAPK2 = biological target: T28, MAPKAPK2 (Homo sapiens, UniProt P49137); details: read-out: % of control activity at 71 nM
T28 construct: T7 phage fusion (most kinases) or DNA tag for qPCR (HEK-293-made kinases); purchased DiscoverX; host or cells: E. coli BL21-derived host (T7 phage) or HEK-293
Protocol: as §1

TRKA = biological target: T29, TRKA (Homo sapiens, UniProt P04629); details: read-out: % of control activity at 71 nM
T29 construct: T7 phage fusion (most kinases) or DNA tag after HEK-293 expression; purchased DiscoverX (Fremont, CA), ScanEDGE; host or cells: T7 phage in E. coli BL21-derived host, or HEK-293
Protocol: as §1

FGFR3 = biological target: T30, FGFR3 (Homo sapiens, UniProt P22607); details: read-out: % of control activity at 71 nM
T30 construct: T7 phage fusion (most kinases) or DNA tag for qPCR (HEK-293-made kinases); purchased DiscoverX; host or cells: E. coli BL21-derived host (T7 phage) or HEK-293
Protocol: as §1

CDK2 = biological target: T31, CDK2 (Homo sapiens, UniProt P24941); details: read-out: % of control activity at 71 nM
T31 construct: T7 phage fusion (most kinases) or DNA tag for qPCR (HEK-293-made kinases); purchased DiscoverX (Fremont, CA); host or cells: E. coli BL21-derived host (T7 phage) or HEK-293
Protocol: as §1

SIK2 = biological target: T32, SIK2 (Homo sapiens, UniProt Q9H0K1); details: read-out: % of control activity at 71 nM
T32 construct: T7 phage fusion (most kinases) or DNA tag after HEK-293 expression; purchased DiscoverX (Fremont, CA), ScanEDGE; host or cells: T7 phage in E. coli BL21-derived host, or HEK-293
Protocol: as §1

T15 sequence (Q8NI60 163-647): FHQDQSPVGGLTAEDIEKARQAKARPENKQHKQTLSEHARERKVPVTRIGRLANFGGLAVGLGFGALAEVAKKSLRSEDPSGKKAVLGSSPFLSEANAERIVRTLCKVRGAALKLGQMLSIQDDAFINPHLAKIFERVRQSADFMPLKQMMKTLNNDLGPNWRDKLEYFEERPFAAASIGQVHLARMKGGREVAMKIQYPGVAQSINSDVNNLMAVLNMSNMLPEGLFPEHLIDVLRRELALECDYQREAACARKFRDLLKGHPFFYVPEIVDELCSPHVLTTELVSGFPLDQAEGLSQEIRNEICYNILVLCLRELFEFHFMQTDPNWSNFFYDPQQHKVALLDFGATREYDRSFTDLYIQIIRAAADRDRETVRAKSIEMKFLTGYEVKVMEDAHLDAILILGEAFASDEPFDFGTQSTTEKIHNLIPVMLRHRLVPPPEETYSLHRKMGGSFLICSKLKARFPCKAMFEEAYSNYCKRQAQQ
T32 sequence (Q9H0K1 whole entry, the tested form may be a part): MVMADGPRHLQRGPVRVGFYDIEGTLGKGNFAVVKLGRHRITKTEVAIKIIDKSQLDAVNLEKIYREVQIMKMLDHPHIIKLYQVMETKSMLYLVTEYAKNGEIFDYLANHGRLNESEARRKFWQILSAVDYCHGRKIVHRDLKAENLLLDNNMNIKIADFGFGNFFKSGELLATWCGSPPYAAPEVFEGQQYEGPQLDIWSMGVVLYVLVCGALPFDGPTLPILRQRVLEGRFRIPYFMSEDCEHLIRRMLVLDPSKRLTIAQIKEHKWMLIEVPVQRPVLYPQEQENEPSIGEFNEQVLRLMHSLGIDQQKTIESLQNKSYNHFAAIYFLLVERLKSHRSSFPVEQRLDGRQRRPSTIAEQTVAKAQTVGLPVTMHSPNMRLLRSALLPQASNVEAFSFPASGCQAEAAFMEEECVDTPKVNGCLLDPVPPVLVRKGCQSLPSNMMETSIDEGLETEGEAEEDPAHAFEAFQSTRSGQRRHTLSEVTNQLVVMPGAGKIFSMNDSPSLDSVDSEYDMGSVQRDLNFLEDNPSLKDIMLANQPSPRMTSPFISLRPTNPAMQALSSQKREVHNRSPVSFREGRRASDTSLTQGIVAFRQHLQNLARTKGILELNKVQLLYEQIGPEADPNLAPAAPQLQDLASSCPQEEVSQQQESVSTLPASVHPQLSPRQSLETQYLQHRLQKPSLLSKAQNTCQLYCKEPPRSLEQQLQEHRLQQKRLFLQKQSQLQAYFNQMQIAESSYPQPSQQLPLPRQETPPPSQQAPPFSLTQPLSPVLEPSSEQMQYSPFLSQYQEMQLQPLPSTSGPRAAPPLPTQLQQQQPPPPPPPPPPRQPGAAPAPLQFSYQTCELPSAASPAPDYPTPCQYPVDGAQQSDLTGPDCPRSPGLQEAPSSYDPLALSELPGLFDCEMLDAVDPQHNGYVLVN
T10 sequence (P57059 whole entry, the tested form may be a part): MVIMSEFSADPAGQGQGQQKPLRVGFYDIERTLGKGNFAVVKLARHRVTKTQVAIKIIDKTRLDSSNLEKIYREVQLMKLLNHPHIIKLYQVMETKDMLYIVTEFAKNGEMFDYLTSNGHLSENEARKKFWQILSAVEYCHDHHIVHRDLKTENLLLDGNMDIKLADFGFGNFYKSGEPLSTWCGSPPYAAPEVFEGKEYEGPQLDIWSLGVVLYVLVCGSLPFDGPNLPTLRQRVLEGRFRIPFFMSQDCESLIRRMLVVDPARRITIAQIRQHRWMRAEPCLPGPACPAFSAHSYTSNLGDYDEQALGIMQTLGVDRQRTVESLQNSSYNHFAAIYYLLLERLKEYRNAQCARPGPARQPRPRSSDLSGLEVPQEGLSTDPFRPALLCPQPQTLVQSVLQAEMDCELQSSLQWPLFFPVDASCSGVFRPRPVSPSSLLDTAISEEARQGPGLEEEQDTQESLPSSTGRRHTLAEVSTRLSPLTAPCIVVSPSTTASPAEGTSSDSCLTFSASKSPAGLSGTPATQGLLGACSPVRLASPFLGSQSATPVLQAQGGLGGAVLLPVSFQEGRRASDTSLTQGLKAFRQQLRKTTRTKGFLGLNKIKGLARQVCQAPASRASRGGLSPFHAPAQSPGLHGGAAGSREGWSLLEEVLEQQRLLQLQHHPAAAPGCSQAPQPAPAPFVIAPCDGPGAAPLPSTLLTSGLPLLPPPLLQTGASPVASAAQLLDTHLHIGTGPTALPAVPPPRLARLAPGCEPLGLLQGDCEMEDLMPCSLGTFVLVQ
T28 sequence (P49137 whole entry, the tested form may be a part): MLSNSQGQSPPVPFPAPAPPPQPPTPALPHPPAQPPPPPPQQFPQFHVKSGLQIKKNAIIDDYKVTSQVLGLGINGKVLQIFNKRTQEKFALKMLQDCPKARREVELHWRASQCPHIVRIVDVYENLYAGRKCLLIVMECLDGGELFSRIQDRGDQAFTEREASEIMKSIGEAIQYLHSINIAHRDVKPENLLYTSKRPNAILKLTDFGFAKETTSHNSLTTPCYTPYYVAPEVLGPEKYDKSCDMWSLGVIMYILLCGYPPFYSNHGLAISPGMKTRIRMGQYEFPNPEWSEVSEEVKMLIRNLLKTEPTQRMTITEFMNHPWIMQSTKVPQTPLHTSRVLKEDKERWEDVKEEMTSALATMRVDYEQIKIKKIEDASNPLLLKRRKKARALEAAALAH
T11 sequence (P07949 29-1114): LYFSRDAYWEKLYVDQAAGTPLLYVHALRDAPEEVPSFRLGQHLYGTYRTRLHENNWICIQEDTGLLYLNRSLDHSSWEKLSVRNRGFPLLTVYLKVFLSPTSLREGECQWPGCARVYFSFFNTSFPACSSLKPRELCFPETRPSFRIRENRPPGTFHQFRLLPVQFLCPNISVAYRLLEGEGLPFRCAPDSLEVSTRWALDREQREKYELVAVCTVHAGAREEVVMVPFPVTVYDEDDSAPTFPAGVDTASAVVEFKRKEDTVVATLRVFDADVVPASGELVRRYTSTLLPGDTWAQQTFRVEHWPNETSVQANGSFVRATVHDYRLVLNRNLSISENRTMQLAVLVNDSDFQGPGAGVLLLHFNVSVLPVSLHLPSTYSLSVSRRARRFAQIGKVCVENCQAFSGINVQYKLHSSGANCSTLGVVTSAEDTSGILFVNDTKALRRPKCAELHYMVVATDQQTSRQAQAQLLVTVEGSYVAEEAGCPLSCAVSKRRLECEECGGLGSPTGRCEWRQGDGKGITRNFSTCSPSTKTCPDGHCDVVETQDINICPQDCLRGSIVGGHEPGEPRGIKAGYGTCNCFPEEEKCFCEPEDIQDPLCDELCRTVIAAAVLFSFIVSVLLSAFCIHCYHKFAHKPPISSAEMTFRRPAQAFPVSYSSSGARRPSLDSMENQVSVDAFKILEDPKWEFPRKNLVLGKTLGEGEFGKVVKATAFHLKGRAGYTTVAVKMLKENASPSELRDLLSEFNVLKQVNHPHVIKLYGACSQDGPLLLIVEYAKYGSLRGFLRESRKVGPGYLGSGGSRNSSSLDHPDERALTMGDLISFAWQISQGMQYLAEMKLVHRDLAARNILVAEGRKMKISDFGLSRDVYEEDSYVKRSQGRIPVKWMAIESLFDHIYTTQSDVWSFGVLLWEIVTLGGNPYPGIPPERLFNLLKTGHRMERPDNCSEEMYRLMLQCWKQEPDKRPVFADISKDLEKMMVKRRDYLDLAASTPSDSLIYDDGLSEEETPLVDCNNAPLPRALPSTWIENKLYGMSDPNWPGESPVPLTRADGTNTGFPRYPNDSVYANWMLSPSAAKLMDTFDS
T19 sequence (P43403 whole entry, the tested form may be a part): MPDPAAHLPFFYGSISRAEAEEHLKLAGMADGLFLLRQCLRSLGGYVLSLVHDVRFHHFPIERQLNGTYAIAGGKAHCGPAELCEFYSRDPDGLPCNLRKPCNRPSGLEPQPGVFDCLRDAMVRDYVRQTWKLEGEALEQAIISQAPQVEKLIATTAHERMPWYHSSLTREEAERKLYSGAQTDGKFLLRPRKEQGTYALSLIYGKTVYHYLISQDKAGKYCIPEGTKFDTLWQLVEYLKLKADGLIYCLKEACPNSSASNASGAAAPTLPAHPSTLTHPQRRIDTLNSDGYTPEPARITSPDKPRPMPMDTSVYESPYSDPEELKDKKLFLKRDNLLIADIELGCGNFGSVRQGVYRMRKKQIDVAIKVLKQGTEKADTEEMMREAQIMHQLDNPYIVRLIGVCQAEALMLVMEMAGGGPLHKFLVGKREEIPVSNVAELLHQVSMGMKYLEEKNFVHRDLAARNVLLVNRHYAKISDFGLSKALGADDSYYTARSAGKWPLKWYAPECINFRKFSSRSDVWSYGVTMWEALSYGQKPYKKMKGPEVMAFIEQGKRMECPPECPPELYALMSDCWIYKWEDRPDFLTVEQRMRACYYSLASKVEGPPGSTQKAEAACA
T9 sequence (P36897 34-503): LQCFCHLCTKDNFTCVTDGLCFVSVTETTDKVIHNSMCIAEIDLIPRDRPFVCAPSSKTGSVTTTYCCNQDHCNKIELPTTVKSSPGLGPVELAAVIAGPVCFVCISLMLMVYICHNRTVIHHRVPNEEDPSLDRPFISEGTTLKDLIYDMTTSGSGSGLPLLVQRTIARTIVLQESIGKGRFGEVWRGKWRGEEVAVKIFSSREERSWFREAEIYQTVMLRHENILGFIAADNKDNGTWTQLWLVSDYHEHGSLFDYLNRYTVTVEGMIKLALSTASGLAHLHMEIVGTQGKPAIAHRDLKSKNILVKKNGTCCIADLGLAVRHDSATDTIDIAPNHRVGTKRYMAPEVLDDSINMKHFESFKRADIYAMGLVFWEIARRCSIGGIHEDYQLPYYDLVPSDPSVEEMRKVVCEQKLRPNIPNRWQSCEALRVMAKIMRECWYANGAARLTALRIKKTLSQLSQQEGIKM

COc1ccc(N2C(=O)N(c3c(C)cccc3C)Cc3cnc(Nc4ccc(C5CCN(C)CC5)c(OC)c4)nc32)c(OC)c1 [YKL-05-093]
remaining binding at 0.071 µM (RSK2): 51%
remaining binding at 0.071 µM (MEK2): 12%
remaining binding at 0.071 µM (MET): 92%
remaining binding at 0.071 µM (EGFR): 5.9%
remaining binding at 0.071 µM (IGF1R): 100%
remaining binding at 0.071 µM (PIK3CG): 80%
remaining binding at 0.071 µM (PRKCE): 92%
remaining binding at 0.071 µM (PLK3): 90%
remaining binding at 0.071 µM (TGFBR1): 90%
remaining binding at 0.071 µM (SIK (SIK1)): 0.6%
remaining binding at 0.071 µM (RET): 3.6%
remaining binding at 0.071 µM (EPHA2): 7.1%
remaining binding at 0.071 µM (QSK (SIK3)): 5.3%
remaining binding at 0.071 µM (CDK9): 88%
remaining binding at 0.071 µM (ADCK3): 93%
remaining binding at 0.071 µM (CDK11): 88%
remaining binding at 0.071 µM (PAK4): 88%
remaining binding at 0.071 µM (ABL1): 0.2%
remaining binding at 0.071 µM (ZAP70): 52%
remaining binding at 0.071 µM (PLK1): 100%
remaining binding at 0.071 µM (ULK2): 31%
remaining binding at 0.071 µM (PDPK1): 55%
remaining binding at 0.071 µM (SRPK3): 88%
remaining binding at 0.071 µM (MLK1): 12%
remaining binding at 0.071 µM (SRC): 0%
remaining binding at 0.071 µM (FAK): 90%
remaining binding at 0.071 µM (PIK3CA): 84%
remaining binding at 0.071 µM (MAPKAPK2): 85%
remaining binding at 0.071 µM (TRKA): 74%
remaining binding at 0.071 µM (FGFR3): 24%
remaining binding at 0.071 µM (CDK2): 99%
remaining binding at 0.071 µM (SIK2): 10%
